The source of these data is US8173771B2, “Humanin receptor or humanin-like polypeptide receptor” (Keio Univeristy, priority 2005, dated 2012).

Peptide text beside a SMILES is read from it.

The target of the experiment is T1, HN receptor (HNR; CNTF-R/WSX-1/gp130) on F11 cells (Mus musculus, UniProt O70394+O88507).
T1 construct: endogenous in cells; host or cells: F11 neurohybrid cells
T1 sequence (O70394 25-623): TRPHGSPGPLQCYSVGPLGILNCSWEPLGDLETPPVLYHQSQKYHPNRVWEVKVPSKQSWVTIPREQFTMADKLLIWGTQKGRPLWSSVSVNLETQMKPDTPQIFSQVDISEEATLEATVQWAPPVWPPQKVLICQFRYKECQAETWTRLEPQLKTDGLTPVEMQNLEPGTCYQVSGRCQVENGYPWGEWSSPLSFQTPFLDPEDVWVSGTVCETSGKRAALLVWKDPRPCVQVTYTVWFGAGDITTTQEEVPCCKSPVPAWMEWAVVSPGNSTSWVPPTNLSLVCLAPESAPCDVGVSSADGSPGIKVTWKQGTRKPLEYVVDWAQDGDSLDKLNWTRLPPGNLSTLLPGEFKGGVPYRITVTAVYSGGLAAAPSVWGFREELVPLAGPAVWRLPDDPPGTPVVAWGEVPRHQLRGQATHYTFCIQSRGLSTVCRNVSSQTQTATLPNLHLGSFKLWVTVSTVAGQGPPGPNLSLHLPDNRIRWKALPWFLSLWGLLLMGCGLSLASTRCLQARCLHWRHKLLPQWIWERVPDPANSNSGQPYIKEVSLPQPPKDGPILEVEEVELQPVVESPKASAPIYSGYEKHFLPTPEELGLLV
T1 sequence (O88507 23-342): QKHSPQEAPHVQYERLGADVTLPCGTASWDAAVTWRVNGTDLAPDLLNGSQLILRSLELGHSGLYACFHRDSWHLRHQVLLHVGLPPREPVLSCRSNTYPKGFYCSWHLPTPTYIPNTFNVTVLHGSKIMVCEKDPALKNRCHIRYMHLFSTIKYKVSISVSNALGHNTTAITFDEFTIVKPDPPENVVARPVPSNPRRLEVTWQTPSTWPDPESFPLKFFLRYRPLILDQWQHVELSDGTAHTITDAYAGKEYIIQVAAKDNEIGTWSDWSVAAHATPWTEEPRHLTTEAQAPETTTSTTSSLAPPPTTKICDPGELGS
T1 sequence (Q00560 23-917 partner): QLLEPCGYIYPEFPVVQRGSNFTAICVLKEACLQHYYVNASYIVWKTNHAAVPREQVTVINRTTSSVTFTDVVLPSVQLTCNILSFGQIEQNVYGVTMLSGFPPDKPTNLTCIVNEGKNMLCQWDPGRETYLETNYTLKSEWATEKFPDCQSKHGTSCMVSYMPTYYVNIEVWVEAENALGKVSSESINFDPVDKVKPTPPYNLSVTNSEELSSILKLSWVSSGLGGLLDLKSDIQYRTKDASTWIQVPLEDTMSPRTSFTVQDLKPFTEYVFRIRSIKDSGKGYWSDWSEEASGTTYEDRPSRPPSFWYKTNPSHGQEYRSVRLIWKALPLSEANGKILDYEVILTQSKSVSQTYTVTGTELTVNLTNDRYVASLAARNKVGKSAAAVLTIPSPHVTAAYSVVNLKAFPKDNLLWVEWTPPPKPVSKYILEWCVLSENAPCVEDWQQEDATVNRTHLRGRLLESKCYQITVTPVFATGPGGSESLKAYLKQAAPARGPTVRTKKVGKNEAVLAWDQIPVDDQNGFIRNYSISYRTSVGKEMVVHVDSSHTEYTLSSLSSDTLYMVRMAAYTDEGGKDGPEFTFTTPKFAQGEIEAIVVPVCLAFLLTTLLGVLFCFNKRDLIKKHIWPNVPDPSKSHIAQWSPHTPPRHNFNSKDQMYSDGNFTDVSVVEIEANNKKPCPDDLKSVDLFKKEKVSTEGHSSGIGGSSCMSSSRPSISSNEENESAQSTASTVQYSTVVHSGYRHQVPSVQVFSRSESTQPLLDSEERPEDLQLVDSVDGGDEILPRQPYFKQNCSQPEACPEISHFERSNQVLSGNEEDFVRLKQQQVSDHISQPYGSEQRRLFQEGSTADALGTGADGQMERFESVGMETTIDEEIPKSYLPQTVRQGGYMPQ
In words: Immunofluorescence-based binding assay (2): biotin-HN / biotin-HNG binding to F11 cells. The procedure:
A) F11 cells were seeded on 96-well plates coated with poly-L-lysine (7×10^3 cells/well). An indicated amount of biotin-HN or biotin-HNG was added to the cells with or without 10 μM of unlabelled HNG or HNA, followed by a binding assay based on immunofluorescence reaction (2) (left panels). On the other hand, F11 cells were transfected with 0.5 μg of pcDNA3.1/GS-human CNTF-R, pEF1/MycHis-human WSX-1, and 1.0 μg of pCAG-human gp130. At 24 hrs after the transfection, the cells were re-seeded on 96-well plates coated with poly-L-lysine (7×10^3 cells/well). After 36 hrs the re-seeding, an indicated amount of biotin-HN or biotin-HNG was added to the cells with or without 10 μM of unlabeled HNG or HNA, followed by a binding assay based on immunofluorescence reaction (2) (right panels).
B) F11 cells were transfected with 0.5 μg of pRNA-U1.6/Shuttle vector, pRNA-U6.1/Shuttle-WSX-1 siRNA, pRNA-U6.1/Shuttle-CNTF-R siRNA, both pRNA-U6.1/Shuttle-WSX-1 siRNA and pRNA-U6.1/Shuttle-CNTF-R siRNA (0.5 μg each), pRNA-U6.1/Shuttle-FPR2 siRNA or pRNA-U6.1/Shuttle-LIFR siRNA. The total amount of vectors was adjusted to be 1.0 μg by including a backbone vector. At 24 hrs after the transfection, an indicated amount of biotin-HNG was added with or without unlabeled HNG, followed by a binding assay based on immunofluorescence reaction (2) at 72 hrs after the transfection.
E) F11 cells on 6-well plate (7×10^4 cells/well) were transfected with 1.0 μg of pRNA-U6.1/Shuttle vector, pRNA-U6.1/Shuttle-Bax siRNA, or both pRNA-U6.1/Shuttle-WSX-1 siRNA and pRNA-U6.1/Shuttle-CNTF-R siRNA (0.5 μg each). At 72 hrs after the transfection, the cells were added with an indicated amount of biotin-HN with or without unlabeled HN or HNA (100 μM) and subjected to an HN-binding assay based on immunofluorescence.
F11 cells (7×10^4/well in 6-well plates) were replated into 96-well plates (7×10^3 cells/well) at 24 hrs after transfection with indicated amounts of the plasmids encoding mycHis-WSX or V5-CNTF-R, and with PCAG-human gp130 if required. At 36 hrs after transfection, the cells were added with biotin-labeled HN or HNG of indicated concentrations in the presence or the absence of HNG (S14G-HN) or HNA (C8A-HN) of indicated concentrations (Hashimoto et al., 2001 a). After 6 hrs incubation, they were fixed with 4% paraformaldehyde in PBS for 30 min. After washing with PBS, cells were stained with FITC-conjugated avidin (Molecularprobe, Eugene, Oreg., USA). Immunofluorescence intensity was measured (excitation=485 nm, emission=535 nm) with a spectrofluorometer (Wallac1420 ARVOsx Multi Label Counter). Immunohistochemical analysis was done with a laser-scanning, confocal microscope LSM (Carl Zeiss, Germany).

`CC[C@H](C)[C@H](NC(=O)[C@H](CCC(=O)O)NC(=O)CNC(=O)[C@@H](NC(=O)[C@H](CC(C)C)NC(=O)[C@H](CC(C)C)NC(=O)[C@H](CC(C)C)NC(=O)[C@H](CC(C)C)NC(=O)[C@H](CS)NC(=O)[C@H](CO)NC(=O)[C@H](Cc1ccccc1)NC(=O)CNC(=O)[C@H](CCCNC(=N)N)NC(=O)[C@@H]1CCCN1C(=O)[C@H](C)NC(=O)[C@@H](N)CCSC)[C@@H](C)O)C(=O)N[C@@H](CC(=O)O)C(=O)N[C@@H](CC(C)C)C(=O)N1CCC[C@H]1C(=O)N[C@H](C(=O)N[C@@H](CCCCN)C(=O)N[C@@H](CCCNC(=N)N)C(=O)N[C@@H](CCCNC(=N)N)C(=O)N[C@@H](C)C(=O)O)C(C)C` [HNG, S14 G-Humanin] (H-MAPRGFSCLLLLTGEIDLPVKRRA-OH; N-terminus and C-terminus assumed): under “biotin-HNG, concentration-dependent binding”, the “concentration of saturation of binding” value is 10 nM. Further, the “binding to F11 cells” value (expression of FPR2 or LIFR decreased by siRNA) is listed as “not be affected”. Further, where the note is “specificity of binding”, the “inhibition of binding by over-addition of unlabeled peptide” value is on record as “almost completely inhibit”.
